Measurements taken from patent publication EP0425443A1, “Injectable antiparasitic agent” (CIBA-GEIGY AG, priority 1989, dated 1991).
Values after ≈ are worked out from the molar mass of the structure shown.

Assay: Solubility of the active substance in organic solvents
Format: physicochemical
Conditions: dmso and n-methylpyrrolidone, organic solvent or mixture; in Dimethylsulfoxid und N-Methylpyrrolidon; Gewicht-pro-Volumen-Prozent; read-out: Solubility (lösen)
Source text: Injizierbare Zubereitungen stellen wegen der sehr genauen Dosierbarkeit auch kleiner Wirkstoffmengen, der leichten Anwendbarkeit und der geringfügigen Beunruhigung der zu behandelnden Tiere, insbesondere grösserer Nutztiere, wie beispielsweise Rinder, Schafe, Pferde und Esel, oftmals die günstigste Applikationsart dar. Bei der Verwendung von schwerlöslichen Substanzen wie insbesondere den Benzoylphenylharnstoffen in Form injizierbarer Formulierungen ergeben sich jedoch Probleme, wenn mit ihnen ein wirksamer Plasmaspiegel, d.h., eine gleichmässige Verteilung einer ausreichenden Wirkstoffmenge im Plasma, erreicht werden soll, weil das injizierte Material von der Gewebsflüssigkeit beeinflusst wird und damit beispielsweise die physikalisch-chemischen Eigenschaften besagten Materials so verändert werden können, dass ein erheblicher Anteil des injizierten Materials sehr rasch kristallisiert und dadurch an der Injektionsstelle oder in sehr naher Umgebung davon verbleibt. So lassen sich Benzoylharnstoffe, beispielsweise N-[3-(3-Chlor-5-trifluormethylpyridyl-2-oxy)-4-chlorphenyl]-N'-[2,6-difluorbenzoyl]-hamstoff, in Dimethylsulfoxid und N-Methylpyrrolidon (etwa 35 %, Prozentangaben bedeuten hier und im folgenden Gewichtpro-Volumen-Prozent) lösen. […]

O=C(NC(=O)c1c(F)cccc1F)Nc1ccc(Cl)c(Oc2ncc(C(F)(F)F)cc2Cl)c1 [N-[3-(3-Chlor-5-trifluormethylpyridyl-2-oxy)-4-chlorphenyl]-N'-[2,6-difluorbenzoyl]-harnstoff]
solubility: ~350 mg/mL (≈ 691 mM)
